Experimental findings from patent US5486518A, “4-indolylpiperazinyl derivatives” (American Home Products Corporation, priority 1995, dated 1996) are described below.

In this experiment the target is T1, serotonin 5-HT1 A receptor (Rattus norvegicus, UniProt P19327).
T1 construct: rat hippocampal membrane homogenate; from tissue; host or cells: rat hippocampus (membrane homogenate)
T1 sequence (P19327 1-422): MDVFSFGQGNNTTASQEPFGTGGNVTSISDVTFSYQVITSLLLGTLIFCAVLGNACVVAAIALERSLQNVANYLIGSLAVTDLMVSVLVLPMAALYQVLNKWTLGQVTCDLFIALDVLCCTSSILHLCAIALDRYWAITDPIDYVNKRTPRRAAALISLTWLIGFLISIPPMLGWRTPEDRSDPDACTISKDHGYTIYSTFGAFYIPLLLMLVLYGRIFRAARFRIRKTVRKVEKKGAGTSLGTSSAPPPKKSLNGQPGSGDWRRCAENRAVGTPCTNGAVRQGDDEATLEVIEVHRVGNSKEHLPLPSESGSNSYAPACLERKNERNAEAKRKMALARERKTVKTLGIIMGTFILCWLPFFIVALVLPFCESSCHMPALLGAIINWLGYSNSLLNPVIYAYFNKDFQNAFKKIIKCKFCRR
The experiment in a line: displacement of [^3 H]8-OHDPAT from the 5-HT1 A serotonin receptors in rat hippocampal membrane homogenate. Type of experiment: binding. The text has this:
High affinity for the serotonin 5-HT1 A receptor was established by testing the claimed compound's ability to displace [^3 H]8-OHDPAT (dipropylaminotetralin) from the 5-HT1 A serotonin receptors in rat hippocampal membrane homogenate following the procedure of B. S. Alexander and M. D. Wood, J. Pharm. Pharmacol. 1988, 40, 888-891.
Consider `O=C(N[C@@H](CN1CCN(c2cccc3[nH]ccc23)CC1)c1ccccc1)c1ccccc1` [Example 3], for which the IC50 was found to be 5 nM.
`O=C(N[C@H](Cc1ccccc1)CN1CCN(c2cccc3[nH]ccc23)CC1)C1CCCCC1` [Example 4, (R)- Cyclohexane Carboxylic Acid 1-Phenylmethyl-2-[1-[4-(4-indolyl)piperazinyl]] ethylamide] registered an IC50 of 8.3 nM.
The compound `CC(=O)N[C@@H](CN1CCN(c2cccc3[nH]ccc23)CC1)c1ccccc1` [Example 2] yielded an IC50 of 35.5 nM.
`O=C(N[C@@H](CN1CCN(c2cccc3[nH]ccc23)CC1)c1ccccc1)C1CCCCC1` [Example 1] registered an IC50 of 2 nM.

A word on the IC50: it is the concentration that inhibits the measured activity by half.
